Laboratory results taken from patent US11524977B2, “Ultrasound-assisted simulated digestion method of milk protein active peptide and application thereof in health foods” (JIANGSU UNIVERSITY, priority 2017, dated 2022).
“And” between values parts separate entries of the source, which are not always exact repeats. Identical values can stand only once.

Legend:
[1] = literature report, in words; cited from earlier work
[2] = tested on: ICAM-1; conditions: synthesized peptide 100 μM
Method: (§1) The peptides were subjected to study the anti-inflammatory activity; the levels of intercellular adhesion molecule (ICAM-1) and vascular cell adhesion molecule (VCAM-1) expressed in EA.hy926 cells were detected by Western blot as inflammatory biomarkers. The EA, hy926 cells with passage number <12 were grown in 48-well plates. The cells reaching 80-90% confluence were treated with various concentrations (2.5 mg/mL of hydrolysates and digests, 0.2 mM and 3.0 mM of synthetic peptides) of the samples for 18 h. Then the cells were stimulated with TNF-α at 10 ng/mL and incubated for an additional 6 h in order to induce inflammation.
(§2) After the treatment period, the culture medium of the EA. hy926 cells was discarded and a boiling Laemmle buffer containing 0.2% TritonX-100 and 50 μM dithiothreitol was added to lysate the cells. The cell lysates were then run on 9% sodium dodecyl sulfate polyacrylamide gel electrophoresis. The gels were transferred onto nitrocellulose membranes, and immunoblotted with anti-ICAM-1/anti-VCAM-1 antibodies. The concentration of antibody to α-tubulin used was 0.4 μg/mL, while that for all other antibodies was 0.1 μg/mL. The protein bands were scanned using Licor Odyssey BioImager (Licor Biosciences, Lincoln, NB, USA) and quantified by densitometry using Image Studio Lite 5.2.

[3] = tested on: VCAM-1; conditions: synthesized peptide 100 μM
Method: as §1, §2

Substance | antibacterial activity [1] | ICAM-1 (%TNF-α) [2] | VCAM-1 (TNF-α) [3]
AASDISLLDAQSAPLR [peptide obtained by enzymolysis of β-LG] | strong antibacterial activity | – | –
IPAVFK: peptide obtained by enzymolysis of β-LG (UniProt P02754 94-99, looked up, fragment) | strong antibacterial activity | – | –
Leu-Gln-Tyr [LQY] | – | 48.2 %TNF-α and 48.2 ± 6.3 %TNF-α | 33.7 TNF-α and 33.7 ± 6.9 TNF-α
Phe-Tyr-Gln-Ala [FYQA] | – | 56.6 %TNF-α and 56.6 ± 9.0 %TNF-α | 41.3 TNF-α and 41.3 ± 10.6 TNF-α
VLVLDTDYK [peptide obtained by enzymolysis of β-LG] | strong antibacterial activity | – | –
